Reference: publication PMC11642016 (International Journal of Molecular Sciences, 2024)

Legend:
PANC-1 cells = experiment: CellTiter-Glo luminescent cell viability assay, PANC-1; settings: 72 h, second-set screening, mean ± SD, n = 2; for Cell Viability (% of Control) 2.8 µM / Cell Viability (% of Control) 8.3 µM / Cell Viability (% of Control) 25 µM: PANC-1; for viability at 2.8 µM / viability at 8.3 µM / viability at 25 µM: Homo sapiens, PANC-1, 72 h; for viability at 2.8 µM: read-out: Cell Viability (% of Control) 2.8 µM, PANC-1; for viability at 8.3 µM: read-out: Cell Viability (% of Control) 8.3 µM, PANC-1; for viability at 25 µM: read-out: Cell Viability (% of Control) 25 µM, PANC-1
Fadu cells = experiment: CellTiter-Glo luminescent cell viability assay, Fadu; settings: 72 h, second-set screening, mean ± SD, n = 2; for Cell Viability (% of Control) 2.8 µM / Cell Viability (% of Control) 8.3 µM / Cell Viability (% of Control) 25 µM: Fadu; for viability at 2.8 µM / viability at 8.3 µM / viability at 25 µM: Homo sapiens, FaDu; for viability at 2.8 µM: read-out: Cell Viability (% of Control) 2.8 µM, Fadu; for viability at 8.3 µM: read-out: Cell Viability (% of Control) 8.3 µM, Fadu; for viability at 25 µM: read-out: Cell Viability (% of Control) 25 µM, Fadu

Compound	Cell Viability (% of Control) 2.8 µM (PANC-1 cells)	Cell Viability (% of Control) 8.3 µM (PANC-1 cells)	Cell Viability (% of Control) 25 µM (PANC-1 cells)	Cell Viability (% of Control) 2.8 µM (Fadu cells)	Cell Viability (% of Control) 8.3 µM (Fadu cells)	Cell Viability (% of Control) 25 µM (Fadu cells)	viability at 2.8 µM (PANC-1 cells) [%]	viability at 8.3 µM (PANC-1 cells) [%]	viability at 25 µM (PANC-1 cells) [%]	viability at 2.8 µM (Fadu cells) [%]	viability at 8.3 µM (Fadu cells) [%]	viability at 25 µM (Fadu cells) [%]
NCc1cccc(CN2C(=O)C3=C(CCN(Cc4ccc(-n5cc(-[c-]6cccc6)nn5)cc4)C3)N3CCN=C23)c1.[Fe+2].c1cc[cH-]c1 [37a]	118 ± 4 % of Control	123 ± 5 % of Control	16 ± 8 % of Control	106 ± 10 % of Control	70 ± 20 % of Control	0 ± 0 % of Control						
NCc1cccc(CN2C(=O)C3=C(CCN(Cc4ccc(-n5cc(-c6ccccc6)nn5)cc4)C3)N3CCN=C23)c1 [37b]							110 ± 5	113 ± 3	5 ± 6	108 ± 7	91 ± 12	13 ± 6
CN(C)CC#Cc1cccc(CN2C(=O)C3=C(CCN(Cc4ccc(-n5cc(-[c-]6cccc6)nn5)cc4)C3)N3CCN=C23)c1.[Fe+2].c1cc[cH-]c1 [39a]	112 ± 7 % of Control	62 ± 72 % of Control	35 ± 41 % of Control	99 ± 9 % of Control	45 ± 52 % of Control	13 ± 15 % of Control						
CN(C)CC#Cc1cccc(CN2C(=O)C3=C(CCN(Cc4ccc(-n5cc(-c6ccccc6)nn5)cc4)C3)N3CCN=C23)c1 [39b]							107 ± 3	25 ± 20	2 ± 3	96 ± 4	15 ± 8	1 ± 1
O=C1C2=C(CCN(Cc3ccc(-n4cc(-[c-]5cccc5)nn4)cc3)C2)N2CCN=C2N1Cc1cccc(C#CCN2CCCCC2)c1.[Fe+2].c1cc[cH-]c1 [40a]	119 ± 4 % of Control	72 ± 61 % of Control	61 ± 67 % of Control	105 ± 5 % of Control	81 ± 21 % of Control	45 ± 34 % of Control						
O=C1C2=C(CCN(Cc3ccc(-n4cc(-c5ccccc5)nn4)cc3)C2)N2CCN=C2N1Cc1cccc(C#CCN2CCCCC2)c1 [40b]							125 ± 5	12 ± 10	1 ± 1	92 ± 9	60 ± 3	24 ± 11
CN1CCN(CC#Cc2cccc(CN3C(=O)C4=C(CCN(Cc5ccc(-n6cc(-c7ccccc7)nn6)cc5)C4)N4CCN=C34)c2)CC1 [41b]							110 ± 6	0	0	106 ± 1	30 ± 28	3 ± 1
O=C1C2=C(CCN(Cc3ccc(-n4cc(-[c-]5cccc5)nn4)cc3)C2)N2CCN=C2N1Cc1cccc(C#CCN2CCOCC2)c1.[Fe+2].c1cc[cH-]c1 [42a]	132 ± 4 % of Control	75 ± 31 % of Control	58 ± 36 % of Control	121 ± 3 % of Control	112 ± 11 % of Control	55 ± 12 % of Control						
O=C1C2=C(CCN(Cc3ccc(-n4cc(-c5ccccc5)nn4)cc3)C2)N2CCN=C2N1Cc1cccc(C#CCN2CCOCC2)c1 [42b]							94 ± 5	82 ± 5	59 ± 3	108 ± 7	91 ± 12	13 ± 6
